In patent US20250074911A1, “MACROCYCLIC BTK INHIBITORS” (Crossfire Oncology Holding B.V., priority 2021, published 2025):
“And” between values parts separate entries of the source, which are not always exact repeats. Equal values may be shown once.

Assays:
REC-1 T474I cell lines = test: Cell proliferation assay REC-1 BTK T474I knock-in cells (ATPlite, 72 hours); format: cell-based; details: Homo sapiens, Rec1; 72 hours; read-out: IC50 REC-1 T474I
Procedure, shortened: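 REC-1 cells carrying CRISPR knock-in mutant BTK, single-cell cloned and sequence-confirmed, were exposed to compound for 72 h and read by ATPlite luminescence. Percentage growth was calculated against the signal at the start of incubation and against untreated 0.3% DMSO wells as maximum growth.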

[1] = test system: wt-REC-1 mantle cell lymphoma cells; test: Cell proliferation assay wt-REC-1 (ATPlite, 72 hours); format: cell-based; details: 72 h; read-out: IC50 wt-REC-1
Procedure, shortened: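 Luminescent viability read over 72 h, start-of-incubation signal recorded separately to separate growth from cell death. Percentage growth referenced to compound-free 0.3% DMSO wells; IC50 from 4-parameter logistic fit.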

BTK C481S = BTK C481S (Homo sapiens (Human), UniProt Q06187, C481S); test: Binding kinetics measurements (Surface Plasmon Resonance) on BTK C481S; details: for Kd: binding affinity by Surface Plasmon Resonance (SPR); for Tau (h) BTK C418S (Act): target residence time for BTK C481S, SPR
Procedure, shortened: (§1)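 Protein was immobilized on a streptavidin surface at 4° C, then equilibrated in running buffer containing 1% DMSO at 30 μl/min for at least 30 min. Compounds were injected five times at increasing concentrations (3.16-316 nM) at 22° C. Induced-fit binders were fitted with a two-state reaction model.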

BTK T474I = BTK T474I (Homo sapiens (Human), UniProt Q06187, T474I); test: Binding kinetics measurements (Surface Plasmon Resonance) on BTK T474I; details: for Kd: binding affinity by Surface Plasmon Resonance (SPR); for Tau (h) BTK T474I (Act): target residence time, SPR
Procedure, shortened: as §1

[2] = test system: wt-TMD8 diffuse large B-cell lymphoma cells; test: Cell proliferation assay wt-TMD8 (ATPlite, 120 hours); format: cell-based; details: B-cell; wt-TMD8 cells, 120 hours, ATPlite; read-out: IC50 wt-TMD8
Procedure, shortened: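 Readout is percentage growth from ATPlite 1Step luminescence after 5 days (120 h) compound treatment of wt-TMD8 lymphoma cells (1600/well, RPMI-1640 + 10% FBS). Time-zero signal separates growth inhibition from cell kill; 0.3% DMSO wells without compound define maximal growth.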

[3] = molecular target: full-length BTK C481S enzyme (Homo sapiens (Human), UniProt Q06187, C481S); test: Biochemical kinase assay BTK C481S (IMAP)
Procedure, shortened: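 IC50 values come from IMAP fluorescence polarization after quenching with progressive binding solution. The reaction ran 2 h at room temperature in the dark with 1.2 nM full-length C481S enzyme, 7 μM ATP and 50 nM fluorescein-labelled MBP-derived peptide, following a 1 h dark pre-incubation of compound with enzyme.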

wt-BTK = wt-BTK (Homo sapiens (Human), UniProt Q06187); test: Binding kinetics measurements (Surface Plasmon Resonance) on wt-BTK; details: for Kd: binding affinity by Surface Plasmon Resonance (SPR); for Tau (h) wt-BTK (Act): target residence time, SPR
Procedure, shortened: as §1

BTK T316A = BTK T316A (Homo sapiens (Human), UniProt Q06187, T316A); test: Binding kinetics measurements (Surface Plasmon Resonance) on BTK T316A; details: for Kd: binding affinity by Surface Plasmon Resonance (SPR); for Tau (h) BTK T316A (Act): target residence time, SPR
Procedure, shortened: as §1

[4] = molecular target: full-length wt-BTK enzyme (Homo sapiens (Human), UniProt Q06187); test: Biochemical kinase assay wt-BTK (IMAP)
Procedure, shortened: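 Compound and enzyme (final 1.2 nM) were pre-incubated for 1 h at RT, after which the reaction was started with 4 μM ATP plus 50 nM fluorescein-MBP substrate peptide. After 2 h in the dark, the IMAP progressive binding reagent stopped the reaction, and phosphorylation was read by fluorescence polarization.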

BTK T474S = BTK T474S (Homo sapiens (Human), UniProt Q06187, T474S); test: Binding kinetics measurements (Surface Plasmon Resonance) on BTK T474S; details: for residence time: SPR binding kinetics, BTK T474S, read-out: Tau (h) BTK T474S (Act), target residence time (converted); for Kd: binding affinity by Surface Plasmon Resonance (SPR)
Procedure, shortened: as §1

BTK T474I, sequence (Q06187 whole entry T474I): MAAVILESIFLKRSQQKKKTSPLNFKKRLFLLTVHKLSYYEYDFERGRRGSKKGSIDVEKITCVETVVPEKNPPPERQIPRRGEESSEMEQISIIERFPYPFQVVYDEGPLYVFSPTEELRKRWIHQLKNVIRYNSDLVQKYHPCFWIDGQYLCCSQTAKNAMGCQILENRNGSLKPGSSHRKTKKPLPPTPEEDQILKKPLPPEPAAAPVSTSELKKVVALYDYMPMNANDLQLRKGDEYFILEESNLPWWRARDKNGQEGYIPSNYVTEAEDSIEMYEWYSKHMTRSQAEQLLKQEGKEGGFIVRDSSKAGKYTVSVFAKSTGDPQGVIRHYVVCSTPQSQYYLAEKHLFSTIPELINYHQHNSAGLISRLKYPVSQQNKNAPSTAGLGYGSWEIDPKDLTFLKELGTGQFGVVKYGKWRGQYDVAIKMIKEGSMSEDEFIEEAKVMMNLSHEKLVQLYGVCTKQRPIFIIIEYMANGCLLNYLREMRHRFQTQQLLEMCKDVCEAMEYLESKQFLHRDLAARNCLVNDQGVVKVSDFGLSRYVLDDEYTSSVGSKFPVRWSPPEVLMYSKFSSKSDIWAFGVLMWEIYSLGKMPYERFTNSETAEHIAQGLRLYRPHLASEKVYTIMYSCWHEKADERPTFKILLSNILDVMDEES
BTK T474S, sequence (Q06187 whole entry T474S): as the sequence (Q06187 whole entry T474I) above, with I474S counted along it
BTK T316A, sequence (Q06187 whole entry T316A): as the sequence (Q06187 whole entry T474I) above, with T316A, I474T counted along it
BTK C481S, sequence (Q06187 whole entry C481S): as the sequence (Q06187 whole entry T474I) above, with I474T, C481S counted along it
full-length BTK C481S enzyme, sequence (Q06187 whole entry C481S): as the sequence (Q06187 whole entry T474I) above, with I474T, C481S counted along it
full-length wt-BTK enzyme, sequence (Q06187 whole entry): as the sequence (Q06187 whole entry T474I) above, with I474T counted along it
wt-BTK, sequence (Q06187 whole entry): as the sequence (Q06187 whole entry T474I) above, with I474T counted along it

## Nc1ncc2c3c1c(-c1ccc(C(=O)Nc4cc(C(F)(F)F)ccn4)cc1)nn3[C@@H]1CCC[C@H](C1)NC(=O)C1CCN1CC/C=C/2 (some centres unmarked) [Example 34]
REC-1 T474I cell lines
  IC50: < 100 nM
[1]
  IC50: < 100 nM
BTK C481S
  Kd: < 5 nM
  Tau (h) BTK C418S (Act): 9.06 h
BTK T474I
  Kd: < 2 nM
  Tau (h) BTK T474I (Act): 1.70 h
[2]
  IC50: < 100 nM
[3]
  IC50: < 5 nM
wt-BTK
  Kd: < 5 nM
  Tau (h) wt-BTK (Act): 6.06 h
BTK T316A
  Kd: < 5 nM
  Tau (h) BTK T316A (Act): 5.41 h
[4]
  IC50: < 5 nM
BTK T474S
  residence time: 8.1 h
  Kd: < 3 nM

## Nc1ncc2c3c1c(-c1ccc(C(=O)Nc4cc(C(F)(F)F)ccn4)cc1)nn3[C@@H]1CCC[C@H](C1)NC(=O)CNC[C@@H](O)/C=C/2 [Example 39]
REC-1 T474I cell lines
  IC50: 500 to 10000 nM
[1]
  IC50: 100 to 1000 nM
BTK C481S
  Kd: < 5 nM
  Tau (h) BTK C418S (Act): 2.54 h
BTK T474I
  Kd: < 2 nM
[2]
  IC50: < 100 nM
[3]
  IC50: < 5 nM
wt-BTK
  Kd: < 5 nM
  Tau (h) wt-BTK (Act): 4.22 h
BTK T316A
  Kd: < 5 nM
  Tau (h) BTK T316A (Act): 1.25 h
[4]
  IC50: < 5 nM
BTK T474S
  residence time: 5.96 h
  Kd: < 3 nM

## C[C@@H]1CC(=O)N[C@@H]2CCC[C@H](C2)n2nc(-c3ccc(C(=O)Nc4cc(C(F)(F)F)ccn4)cc3)c3c(N)ncc(c32)/C=C/CN1C [Example 44]
REC-1 T474I cell lines
  IC50: < 100 nM
[1]
  IC50: < 100 nM
BTK C481S
  Kd: < 5 nM
BTK T474I
  Kd: < 2 nM
  Tau (h) BTK T474I (Act): 0.87 h
[2]
  IC50: < 100 nM
[3]
  IC50: < 5 nM
wt-BTK
  Kd: < 5 nM
  Tau (h) wt-BTK (Act): 2.32 h
BTK T316A
  Kd: < 5 nM
  Tau (h) BTK T316A (Act): 2.47 h
[4]
  IC50: < 5 nM
BTK T474S
  residence time: 3.27 h
  Kd: < 3 nM

## Nc1ncc2c3c1c(-c1ccc(C(=O)Nc4cc(C(F)(F)F)ccn4)cc1)nn3[C@@H]1CCC[C@H](C1)NC(=O)CCC/C=C/2 [Example 47]
REC-1 T474I cell lines
  IC50: 100 to 500 nM
[1]
  IC50: 100 to 1000 nM
BTK C481S
  Kd: < 5 nM
  Tau (h) BTK C418S (Act): 4.68 h
BTK T474I
  Kd: < 2 nM
  Tau (h) BTK T474I (Act): 0.86 h
[2]
  IC50: < 100 nM
[3]
  IC50: < 5 nM
wt-BTK
  Kd: < 5 nM
  Tau (h) wt-BTK (Act): 2.66 h
BTK T316A
  Kd: < 5 nM
  Tau (h) BTK T316A (Act): 1.91 h
[4]
  IC50: < 5 nM
BTK T474S
  residence time: 2.76 h
  Kd: < 3 nM

## Nc1ncc2c3c1c(-c1ccc(C(=O)Nc4cc(C(F)(F)F)ccn4)cc1)nn3[C@@H]1CCC[C@H](C1)NC(=O)CCCC/C=C/2 [Example 48]
REC-1 T474I cell lines
  IC50: < 100 nM
[1]
  IC50: < 100 nM
BTK C481S
  Kd: < 5 nM
  Tau (h) BTK C418S (Act): 4.27 h
BTK T474I
  Kd: < 2 nM
  Tau (h) BTK T474I (Act): 2.01 h
[2]
  IC50: < 100 nM
[3]
  IC50: < 5 nM
wt-BTK
  Kd: < 5 nM
  Tau (h) wt-BTK (Act): 7.37 h
BTK T316A
  Kd: < 5 nM
  Tau (h) BTK T316A (Act): 3.89 h
[4]
  IC50: < 5 nM
BTK T474S
  residence time: 4.18 h
  Kd: < 3 nM

## Nc1ncc2c3c1c(-c1ccc(C(=O)Nc4cc(C(F)(F)F)ccn4)cc1)nn3[C@@H]1CCC[C@H](C1)NC(=O)COC/C=C/2 [Example 49]
REC-1 T474I cell lines
  IC50: 100 to 500 nM
[1]
  IC50: < 100 nM
BTK C481S
  Kd: < 5 nM
  Tau (h) BTK C418S (Act): 4.75 h
BTK T474I
  Kd: < 2 nM
[2]
  IC50: < 100 nM
[3]
  IC50: < 5 nM
wt-BTK
  Kd: < 5 nM
  Tau (h) wt-BTK (Act): 3.20 h
BTK T316A
  Kd: < 5 nM
  Tau (h) BTK T316A (Act): 2.20 h
[4]
  IC50: < 5 nM
BTK T474S
  residence time: 4.63 h
  Kd: < 3 nM

## COc1ccc(F)cc1C(=O)NCc1ccc(-c2nn3c4c(cnc(N)c24)/C=C/CCCC(=O)N[C@@H]2CCC[C@@H]3C2)cc1 [Example 50]
REC-1 T474I cell lines
  IC50: 500 to 10000 nM
[1]
  IC50: 100 to 1000 nM
BTK C481S
  Kd: < 5 nM
BTK T474I
  Kd: 10 to 50 nM and < 5 nM
[2]
  IC50: < 100 nM
[3]
  IC50: < 5 nM
wt-BTK
  Kd: < 5 nM
BTK T316A
  Kd: < 5 nM
[4]
  IC50: < 5 nM
BTK T474S
  Kd: < 3 nM

## COc1ccc(F)cc1C(=O)NCc1ccc(-c2nn3c4c(cnc(N)c24)/C=C/CCCCC(=O)N[C@@H]2CCC[C@@H]3C2)cc1 [Example 51]
REC-1 T474I cell lines
  IC50: 100 to 500 nM
[1]
  IC50: 100 to 1000 nM
BTK C481S
  Kd: < 5 nM
  Tau (h) BTK C418S (Act): 1.92 h
BTK T474I
  Kd: 10 to 50 nM and < 5 nM
[2]
  IC50: < 100 nM
[3]
  IC50: < 5 nM
wt-BTK
  Kd: < 5 nM
  Tau (h) wt-BTK (Act): 1.82 h
BTK T316A
  Kd: < 5 nM
[4]
  IC50: < 5 nM
BTK T474S
  residence time: 2.09 h
  Kd: < 3 nM

## COc1ccc(F)cc1C(=O)NCc1ccc(-c2nn3c4c(cnc(N)c24)/C=C/CO[C@H](C)C(=O)N[C@@H]2CCC[C@@H]3C2)cc1 [Example 53]
REC-1 T474I cell lines
  IC50: 100 to 500 nM
[1]
  IC50: < 100 nM
BTK C481S
  Kd: < 5 nM
  Tau (h) BTK C418S (Act): 1.57 h
BTK T474I
  Kd: 10 to 50 nM and < 5 nM
[2]
  IC50: < 100 nM
[3]
  IC50: < 5 nM
wt-BTK
  Kd: < 5 nM
  Tau (h) wt-BTK (Act): 0.89 h
BTK T316A
  Kd: < 5 nM
[4]
  IC50: < 5 nM
BTK T474S
  residence time: 1.26 h
  Kd: < 3 nM

## C[C@@H]1CCn2nc(-c3ccc(C(=O)Nc4cc(C(F)(F)F)ccn4)cc3)c3c(N)ncc(c32)/C=C/COCC(=O)N1 [Example 56]
REC-1 T474I cell lines
  IC50: 500 to 10000 nM
[1]
  IC50: < 100 nM
BTK C481S
  Kd: < 5 nM
  Tau (h) BTK C418S (Act): 2.74 h
BTK T474I
  Kd: 10 to 50 nM and < 5 nM
[2]
  IC50: < 100 nM
[3]
  IC50: < 5 nM
wt-BTK
  Kd: < 5 nM
  Tau (h) wt-BTK (Act): 2.24 h
BTK T316A
  Kd: < 5 nM
  Tau (h) BTK T316A (Act): 1.46 h
[4]
  IC50: < 5 nM
BTK T474S
  residence time: 2.62 h
  Kd: < 3 nM
